Assay results taken from the NIST ThermoML archive (doi:10.1021/je201334p).

Tests used:
[1] = refractive index (Na D-line) (dimensionless); xn = mol fraction of the nth substance listed; conditions: 101 kPa, Liquid, Standard Abbe refractometry
[2] = xn = mol fraction of the nth substance listed; conditions: 101 kPa, Liquid; for speed of sound: Sing-around technique in a fixed-path interferometer; for mass density: Vibrating tube method

CCCC[N+]1(C)CCCC1.O=S(=O)([O-])C(F)(F)F [1-butyl-1-methylpyrrolidinium trifluoromethanesulfonate] + O
Conditions	mass density, 288.15 K [kg/m3]	mass density, 298.15 K [kg/m3]	mass density, 308.15 K [kg/m3]	refractive index, 288.15 K	refractive index, 298.15 K	refractive index, 308.15 K	speed of sound, 288.15 K [m/s]	speed of sound, 298.15 K [m/s]	speed of sound, 308.15 K [m/s]
[1], x2 = 0	–	–	–	1.43557	1.43289	1.43018	–	–	–
[1], x2 = 0.0559	–	–	–	1.43506	1.4324	1.4297	–	–	–
[1], x2 = 0.1084	–	–	–	1.43458	1.43187	1.42918	–	–	–
[1], x2 = 0.2076	–	–	–	1.43345	1.43075	1.42808	–	–	–
[1], x2 = 0.2997	–	–	–	1.43221	1.42951	1.42683	–	–	–
[1], x2 = 0.408	–	–	–	1.43031	1.42762	1.4249	–	–	–
[1], x2 = 0.5038	–	–	–	1.42809	1.42536	1.42262	–	–	–
[1], x2 = 0.6003	–	–	–	1.42501	1.42221	1.41943	–	–	–
[1], x2 = 0.7052	–	–	–	1.41987	1.41708	1.4143	–	–	–
[1], x2 = 0.8095	–	–	–	1.41085	1.40814	1.40557	–	–	–
[1], x2 = 0.9018	–	–	–	1.39398	1.39161	1.38937	–	–	–
[1], x2 = 0.9533	–	–	–	1.37399	1.3721	1.37023	–	–	–
[2], x2 = 0	1260.33	1252.98	1245.78	–	–	–	1484.6	1460.1	1436.7
[2], x2 = 0.0559	1259.04	1251.78	1244.55	–	–	–	1486.9	1462.7	1439.7
[2], x2 = 0.1084	1257.8	1250.57	1243.3	–	–	–	1489.1	1464.9	1441.5
[2], x2 = 0.2076	1255.12	1247.82	1240.51	–	–	–	1494.5	1470.5	1447.2
[2], x2 = 0.2997	1252.05	1244.68	1237.3	–	–	–	1500.7	1476.9	1453.6
[2], x2 = 0.408	1247.41	1239.95	1232.47	–	–	–	1509.8	1486.1	1462.8
[2], x2 = 0.5038	1241.91	1234.36	1226.79	–	–	–	1520.1	1496.5	1473.2
[2], x2 = 0.6003	1234.21	1226.56	1218.89	–	–	–	1533.3	1510	1486.7
[2], x2 = 0.7052	1221.39	1213.67	1205.88	–	–	–	1552.3	1529.6	1506.6
[2], x2 = 0.8095	1198.77	1191.13	1183.37	–	–	–	1576.2	1555.8	1534.6
[2], x2 = 0.9018	1155.9	1148.95	1141.73	–	–	–	1595.4	1582.1	1566.6
[2], x2 = 0.9533	1104.38	1098.73	1092.63	–	–	–	1592.8	1589.4	1582.8
